Measurements from publication PMC4620497 (Scientific Reports, 2015).

Columns and labels:
[1] = target: T1, ABL1(Q252H)-phosphorylated (Homo sapiens, UniProt P00519, Q252H); experiment: KINOMEscan panel screen; type: binding; conditions: read-out: Percent Control(%)
T1 construct: purchased DiscoveRx KINOMEscan (Ambit Biosciences)

[2] = target: T2, ABL1-nonphosphorylated (Homo sapiens, UniProt P00519); experiment: KINOMEscan panel screen; type: binding; conditions: read-out: Percent Control(%)
T2 construct: purchased DiscoveRx KINOMEscan (Ambit Biosciences)

[3] = target: T3, ACVR1 (Homo sapiens, UniProt Q04771); experiment: KINOMEscan panel screen; type: binding; conditions: read-out: Percent Control(%)
T3 construct: purchased DiscoveRx KINOMEscan (Ambit Biosciences)

[4] = target: T4, ACVR2B (Homo sapiens, UniProt Q13705); experiment: KINOMEscan panel screen; type: binding; conditions: read-out: Percent Control(%)
T4 construct: purchased DiscoveRx KINOMEscan (Ambit Biosciences)

[5] = target: T5, BLK (Homo sapiens, UniProt P51451); experiment: KINOMEscan panel screen; type: binding; conditions: read-out: Percent Control(%)
T5 construct: purchased DiscoveRx KINOMEscan (Ambit Biosciences)

[6] = target: T6, BMPR1B (Homo sapiens, UniProt O00238); experiment: KINOMEscan panel screen; type: binding; conditions: read-out: Percent Control(%)
T6 construct: purchased DiscoveRx KINOMEscan (Ambit Biosciences)

[7] = target: T7, CAMK1D (Homo sapiens, UniProt Q8IU85); experiment: KINOMEscan panel screen; type: binding; conditions: read-out: Percent Control(%)
T7 construct: purchased DiscoveRx KINOMEscan (Ambit Biosciences)

[8] = target: T8, CASK (Homo sapiens, UniProt O14936); experiment: KINOMEscan panel screen; type: binding; conditions: read-out: Percent Control(%)
T8 construct: purchased DiscoveRx KINOMEscan (Ambit Biosciences)

[9] = target: T9, CDK9 (Homo sapiens, UniProt P50750); experiment: KINOMEscan panel screen; type: binding; conditions: read-out: Percent Control(%)
T9 construct: purchased DiscoveRx KINOMEscan (Ambit Biosciences)

[10] = target: T10, CSF1R (Homo sapiens, UniProt P07333); experiment: KINOMEscan panel screen; type: binding; conditions: read-out: Percent Control(%)
T10 construct: purchased DiscoveRx KINOMEscan (Ambit Biosciences)

[11] = target: T11, DAPK1 (Homo sapiens, UniProt P53355); experiment: KINOMEscan panel screen; type: binding; conditions: read-out: Percent Control(%)
T11 construct: purchased DiscoveRx KINOMEscan (Ambit Biosciences)

[12] = target: T12, DAPK2 (Homo sapiens, UniProt Q9UIK4); experiment: KINOMEscan panel screen; type: binding; conditions: read-out: Percent Control(%)
T12 construct: purchased DiscoveRx KINOMEscan (Ambit Biosciences)

[13] = target: T13, EPHA2 (Homo sapiens, UniProt P29317); experiment: KINOMEscan panel screen; type: binding; conditions: read-out: Percent Control(%)
T13 construct: purchased DiscoveRx KINOMEscan (Ambit Biosciences)

[14] = target: T14, EPHA7 (Homo sapiens, UniProt Q15375); experiment: KINOMEscan panel screen; type: binding; conditions: read-out: Percent Control(%)
T14 construct: purchased DiscoveRx KINOMEscan (Ambit Biosciences)

[15] = target: T15, EPHA8 (Homo sapiens, UniProt P29322); experiment: KINOMEscan panel screen; type: binding; conditions: read-out: Percent Control(%)
T15 construct: purchased DiscoveRx KINOMEscan (Ambit Biosciences)

[16] = target: T16, EPHB6 (Homo sapiens, UniProt O15197); experiment: KINOMEscan panel screen; type: binding; conditions: read-out: Percent Control(%)
T16 construct: purchased DiscoveRx KINOMEscan (Ambit Biosciences)

[17] = target: T17, ERBB4 (Homo sapiens, UniProt Q15303); experiment: KINOMEscan panel screen; type: binding; conditions: read-out: Percent Control(%)
T17 construct: purchased DiscoveRx KINOMEscan (Ambit Biosciences)

[18] = target: T18, ERK8 (Homo sapiens, UniProt Q8TD08); experiment: KINOMEscan panel screen; type: binding; conditions: read-out: Percent Control(%)
T18 construct: purchased DiscoveRx KINOMEscan (Ambit Biosciences)

[19] = target: T19, FER (Homo sapiens, UniProt P16591); experiment: KINOMEscan panel screen; type: binding; conditions: read-out: Percent Control(%)
T19 construct: purchased DiscoveRx KINOMEscan (Ambit Biosciences)

[20] = target: T20, GRK7 (Homo sapiens, UniProt Q8WTQ7); experiment: KINOMEscan panel screen; type: binding; conditions: read-out: Percent Control(%)
T20 construct: purchased DiscoveRx KINOMEscan (Ambit Biosciences)

[21] = target: T21, GSK3A (Homo sapiens, UniProt P49840); experiment: KINOMEscan panel screen; type: binding; conditions: read-out: Percent Control(%)
T21 construct: purchased DiscoveRx KINOMEscan (Ambit Biosciences)

[22] = target: T22, IKK-epsilon (Homo sapiens, UniProt Q14164); experiment: KINOMEscan panel screen; type: binding; conditions: read-out: Percent Control(%)
T22 construct: purchased DiscoveRx KINOMEscan (Ambit Biosciences)

[23] = target: T23, LYN (Homo sapiens, UniProt P07948); experiment: KINOMEscan panel screen; type: binding; conditions: read-out: Percent Control(%)
T23 construct: purchased DiscoveRx KINOMEscan (Ambit Biosciences)

[24] = target: T24, MAP3K3 (Homo sapiens, UniProt Q99759); experiment: KINOMEscan panel screen; type: binding; conditions: read-out: Percent Control(%)
T24 construct: purchased DiscoveRx KINOMEscan (Ambit Biosciences)

[25] = target: T25, MARK3 (Homo sapiens, UniProt P27448); experiment: KINOMEscan panel screen; type: binding; conditions: read-out: Percent Control(%)
T25 construct: purchased DiscoveRx KINOMEscan (Ambit Biosciences)

[26] = target: T26, MRCKB (Homo sapiens, UniProt Q9Y5S2); experiment: KINOMEscan panel screen; type: binding; conditions: read-out: Percent Control(%)
T26 construct: purchased DiscoveRx KINOMEscan (Ambit Biosciences)

[27] = target: T27, PCTK1 (Homo sapiens, UniProt Q00536); experiment: KINOMEscan panel screen; type: binding; conditions: read-out: Percent Control(%)
T27 construct: purchased DiscoveRx KINOMEscan (Ambit Biosciences)

[28] = target: T28, PIK3CA(M1043I) (Homo sapiens, UniProt P42336, M1043I); experiment: KINOMEscan panel screen; type: binding; conditions: read-out: Percent Control(%)
T28 construct: purchased DiscoveRx KINOMEscan (Ambit Biosciences)

[29] = target: T29, PIK3CD (Homo sapiens, UniProt O00329); experiment: KINOMEscan panel screen; type: binding; conditions: read-out: Percent Control(%)
T29 construct: purchased DiscoveRx KINOMEscan (Ambit Biosciences)

[30] = target: T30, PRKCE (Homo sapiens, UniProt Q02156); experiment: KINOMEscan panel screen; type: binding; conditions: read-out: Percent Control(%)
T30 construct: purchased DiscoveRx KINOMEscan (Ambit Biosciences)

[31] = target: T31, PRKD1 (Homo sapiens, UniProt Q15139); experiment: KINOMEscan panel screen; type: binding; conditions: read-out: Percent Control(%)
T31 construct: purchased DiscoveRx KINOMEscan (Ambit Biosciences)

[32] = target: T32, RIOK3 (Homo sapiens, UniProt O14730); experiment: KINOMEscan panel screen; type: binding; conditions: read-out: Percent Control(%)
T32 construct: purchased DiscoveRx KINOMEscan (Ambit Biosciences)

[33] = target: T33, RSK4(Kin.Dom.1-N-terminal) (Homo sapiens, UniProt Q9UK32); experiment: KINOMEscan panel screen; type: binding; conditions: read-out: Percent Control(%)
T33 construct: RSK4(Kin.Dom.1-N-terminal); purchased DiscoveRx KINOMEscan (Ambit Biosciences)

[34] = target: T34, TGFBR1 (Homo sapiens, UniProt P36897); experiment: KINOMEscan panel screen; type: binding; conditions: read-out: Percent Control(%)
T34 construct: DNA tag (qPCR read-out); purchased Ambit Biosciences (KINOMEscan service)

[35] = target: T35, VEGFR2 (Homo sapiens, UniProt P35968); experiment: KINOMEscan panel screen; type: binding; conditions: read-out: Percent Control(%)
T35 construct: DNA tag (qPCR read-out); purchased Ambit Biosciences (KINOMEscan service)

[36] = target: T36, WEE2 (Homo sapiens, UniProt P0C1S8); experiment: KINOMEscan panel screen; type: binding; conditions: read-out: Percent Control(%)
T36 construct: purchased DiscoveRx KINOMEscan (Ambit Biosciences)

[37] = target: T37, WNK1 (Homo sapiens, UniProt Q9H4A3); experiment: KINOMEscan panel screen; type: binding; conditions: read-out: Percent Control(%)
T37 construct: purchased DiscoveRx KINOMEscan (Ambit Biosciences)

[38] = target: T38, YANK2 (Homo sapiens, UniProt Q9NY57); experiment: KINOMEscan panel screen; type: binding; conditions: read-out: Percent Control(%)
T38 construct: purchased DiscoveRx KINOMEscan (Ambit Biosciences)

[39] = tested on: active β-catenin, NKD1, AXIN2 in MV4-11 tumors; experiment: Wnt/β-catenin signaling in MV4-11 xenograft tumors (western blot, qPCR); type: in vivo, NOD-SCID mice; conditions: single oral dose 10 mg/kg
Experimental: Western blot assays and real-time qPCR assays were conducted on the harvested tumors.
Whole protein lysates of tumor samples were collected by the abrading of tumors in liquid nitrogen. […] Quantitative analysis of the protein level was performed with NIH image analysis software, ImageJ (normalized relative to the vehicle control).
Total RNA of cell samples and tumor samples was extracted using RNAsimple total RNA kit (TIANGEN) according to the manufacturer’s instructions. cDNA was generated using the iScript^TMcDNA Synthesis Kit (Bio-Rad), and the RT-PCR reactions were performed using SsoAdvanced SYBR Green Supermix (Bio-Rad). The reaction consisted of 40 cycles of denaturation at 95 °C for 5 s and annealing/extension for 30s at 60 °C.
The mice were assigned to 5 groups (n = 6 in each group). […] The mean values ± SD are shown. […] Representative images were shown.

[40] = tested on: THP-1; experiment: MTT cell viability assay; conditions: Homo sapiens, THP-1, 72 h
[41] = tested on: H441; experiment: MTT cell viability assay; conditions: Homo sapiens, NCI-H441, 72 h
[42] = tested on: SW620; experiment: MTT cell viability assay; conditions: Homo sapiens, SW-620, 72 h

T8 sequence (O14936 whole entry): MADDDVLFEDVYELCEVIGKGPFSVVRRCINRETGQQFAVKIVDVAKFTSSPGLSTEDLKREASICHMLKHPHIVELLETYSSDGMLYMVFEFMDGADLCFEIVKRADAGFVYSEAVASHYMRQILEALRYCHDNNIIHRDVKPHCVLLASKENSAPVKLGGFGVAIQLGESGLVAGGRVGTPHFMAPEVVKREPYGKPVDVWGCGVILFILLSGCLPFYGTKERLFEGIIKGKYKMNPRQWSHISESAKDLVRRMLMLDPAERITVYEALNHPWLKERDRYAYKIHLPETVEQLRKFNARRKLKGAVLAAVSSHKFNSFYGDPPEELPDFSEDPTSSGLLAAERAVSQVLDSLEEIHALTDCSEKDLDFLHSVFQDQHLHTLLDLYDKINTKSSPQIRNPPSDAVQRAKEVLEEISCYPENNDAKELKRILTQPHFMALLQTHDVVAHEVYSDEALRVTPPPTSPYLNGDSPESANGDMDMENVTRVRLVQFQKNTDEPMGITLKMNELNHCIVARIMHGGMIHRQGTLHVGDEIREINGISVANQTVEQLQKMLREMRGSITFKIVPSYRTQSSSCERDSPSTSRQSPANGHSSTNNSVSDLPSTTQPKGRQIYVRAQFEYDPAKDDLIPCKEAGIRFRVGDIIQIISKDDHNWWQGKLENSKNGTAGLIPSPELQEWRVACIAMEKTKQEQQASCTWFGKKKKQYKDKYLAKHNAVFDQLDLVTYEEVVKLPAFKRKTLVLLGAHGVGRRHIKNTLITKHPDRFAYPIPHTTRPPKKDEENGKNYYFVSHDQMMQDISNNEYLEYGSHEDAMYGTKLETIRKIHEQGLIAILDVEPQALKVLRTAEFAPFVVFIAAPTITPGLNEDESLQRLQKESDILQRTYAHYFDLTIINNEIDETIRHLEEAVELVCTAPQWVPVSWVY
T17 sequence (Q15303 26-1308): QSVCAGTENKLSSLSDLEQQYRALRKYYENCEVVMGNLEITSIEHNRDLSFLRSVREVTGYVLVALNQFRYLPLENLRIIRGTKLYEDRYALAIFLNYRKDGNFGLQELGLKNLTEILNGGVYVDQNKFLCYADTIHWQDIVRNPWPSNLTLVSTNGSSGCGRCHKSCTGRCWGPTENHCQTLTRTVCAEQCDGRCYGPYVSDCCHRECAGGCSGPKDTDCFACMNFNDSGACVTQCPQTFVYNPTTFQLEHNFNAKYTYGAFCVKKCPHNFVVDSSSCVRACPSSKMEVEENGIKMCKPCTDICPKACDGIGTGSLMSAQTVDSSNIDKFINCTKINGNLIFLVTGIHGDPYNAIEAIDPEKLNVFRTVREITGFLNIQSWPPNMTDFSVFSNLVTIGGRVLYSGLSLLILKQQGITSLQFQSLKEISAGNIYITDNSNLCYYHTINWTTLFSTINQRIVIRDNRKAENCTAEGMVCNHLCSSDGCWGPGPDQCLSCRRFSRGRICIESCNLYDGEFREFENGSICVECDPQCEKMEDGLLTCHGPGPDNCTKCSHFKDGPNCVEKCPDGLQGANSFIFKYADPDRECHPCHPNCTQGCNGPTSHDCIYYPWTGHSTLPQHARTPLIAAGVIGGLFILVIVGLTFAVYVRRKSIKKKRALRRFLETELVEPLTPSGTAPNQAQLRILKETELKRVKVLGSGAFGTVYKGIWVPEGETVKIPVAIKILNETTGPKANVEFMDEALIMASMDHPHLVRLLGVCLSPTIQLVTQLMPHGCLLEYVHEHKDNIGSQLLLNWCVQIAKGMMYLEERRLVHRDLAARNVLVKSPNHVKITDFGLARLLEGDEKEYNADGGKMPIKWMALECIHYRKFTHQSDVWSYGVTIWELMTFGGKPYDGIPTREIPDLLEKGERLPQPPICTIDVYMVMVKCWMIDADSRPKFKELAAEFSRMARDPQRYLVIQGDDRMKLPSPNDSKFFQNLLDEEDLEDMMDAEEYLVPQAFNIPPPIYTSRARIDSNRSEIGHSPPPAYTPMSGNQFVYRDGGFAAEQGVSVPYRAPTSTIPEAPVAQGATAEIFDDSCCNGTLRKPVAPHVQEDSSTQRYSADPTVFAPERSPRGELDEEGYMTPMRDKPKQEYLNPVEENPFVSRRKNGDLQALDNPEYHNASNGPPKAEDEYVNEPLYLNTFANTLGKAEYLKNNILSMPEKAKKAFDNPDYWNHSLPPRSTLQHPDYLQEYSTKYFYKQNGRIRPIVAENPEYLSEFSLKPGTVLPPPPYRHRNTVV
T27 sequence (Q00536 whole entry): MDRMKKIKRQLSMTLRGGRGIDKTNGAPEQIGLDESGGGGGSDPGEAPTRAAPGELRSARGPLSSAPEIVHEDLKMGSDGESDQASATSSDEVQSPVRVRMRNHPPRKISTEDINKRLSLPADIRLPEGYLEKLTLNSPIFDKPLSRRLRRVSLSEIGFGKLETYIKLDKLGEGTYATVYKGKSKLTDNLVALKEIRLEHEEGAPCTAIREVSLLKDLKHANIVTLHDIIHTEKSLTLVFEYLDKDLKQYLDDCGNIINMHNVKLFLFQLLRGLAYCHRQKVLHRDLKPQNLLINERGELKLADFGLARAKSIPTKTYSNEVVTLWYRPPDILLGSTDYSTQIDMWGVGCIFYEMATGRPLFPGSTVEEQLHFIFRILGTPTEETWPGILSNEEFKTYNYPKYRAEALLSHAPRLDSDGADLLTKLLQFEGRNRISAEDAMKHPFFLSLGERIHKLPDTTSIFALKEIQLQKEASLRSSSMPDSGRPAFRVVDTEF
T25 sequence (P27448 whole entry): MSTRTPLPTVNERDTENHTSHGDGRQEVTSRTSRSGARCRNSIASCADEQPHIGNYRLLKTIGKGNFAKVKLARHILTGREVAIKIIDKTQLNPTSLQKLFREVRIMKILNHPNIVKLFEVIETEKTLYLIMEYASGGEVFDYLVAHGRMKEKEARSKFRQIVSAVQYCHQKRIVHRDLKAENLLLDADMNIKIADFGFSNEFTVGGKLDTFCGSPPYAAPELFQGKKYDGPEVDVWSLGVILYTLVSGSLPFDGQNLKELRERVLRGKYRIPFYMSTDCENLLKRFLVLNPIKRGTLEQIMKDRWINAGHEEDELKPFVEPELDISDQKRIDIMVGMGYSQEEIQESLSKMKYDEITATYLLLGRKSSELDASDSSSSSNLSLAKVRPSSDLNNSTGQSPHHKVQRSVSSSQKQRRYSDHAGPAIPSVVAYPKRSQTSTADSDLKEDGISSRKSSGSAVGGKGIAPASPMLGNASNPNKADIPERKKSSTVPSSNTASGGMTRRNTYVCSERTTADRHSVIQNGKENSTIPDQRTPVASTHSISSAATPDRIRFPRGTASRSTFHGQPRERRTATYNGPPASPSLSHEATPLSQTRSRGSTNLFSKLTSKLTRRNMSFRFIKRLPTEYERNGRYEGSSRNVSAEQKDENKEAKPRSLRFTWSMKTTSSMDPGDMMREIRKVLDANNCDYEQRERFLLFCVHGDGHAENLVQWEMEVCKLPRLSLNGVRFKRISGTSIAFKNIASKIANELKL
T36 sequence (P0C1S8 whole entry): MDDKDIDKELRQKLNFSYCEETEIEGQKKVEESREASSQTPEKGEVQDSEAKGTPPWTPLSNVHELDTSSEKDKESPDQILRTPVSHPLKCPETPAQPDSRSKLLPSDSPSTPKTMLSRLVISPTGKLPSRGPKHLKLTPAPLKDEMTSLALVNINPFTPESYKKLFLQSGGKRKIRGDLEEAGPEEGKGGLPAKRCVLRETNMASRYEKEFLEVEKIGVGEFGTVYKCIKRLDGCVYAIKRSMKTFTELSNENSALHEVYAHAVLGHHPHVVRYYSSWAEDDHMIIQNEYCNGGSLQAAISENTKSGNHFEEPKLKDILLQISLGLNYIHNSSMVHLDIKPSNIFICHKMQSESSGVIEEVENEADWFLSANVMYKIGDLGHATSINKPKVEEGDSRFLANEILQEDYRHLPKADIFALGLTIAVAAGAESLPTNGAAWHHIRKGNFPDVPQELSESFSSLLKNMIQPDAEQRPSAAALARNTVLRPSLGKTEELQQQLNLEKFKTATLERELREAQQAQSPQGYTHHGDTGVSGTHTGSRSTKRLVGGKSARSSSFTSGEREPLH
T24 sequence (Q99759 whole entry): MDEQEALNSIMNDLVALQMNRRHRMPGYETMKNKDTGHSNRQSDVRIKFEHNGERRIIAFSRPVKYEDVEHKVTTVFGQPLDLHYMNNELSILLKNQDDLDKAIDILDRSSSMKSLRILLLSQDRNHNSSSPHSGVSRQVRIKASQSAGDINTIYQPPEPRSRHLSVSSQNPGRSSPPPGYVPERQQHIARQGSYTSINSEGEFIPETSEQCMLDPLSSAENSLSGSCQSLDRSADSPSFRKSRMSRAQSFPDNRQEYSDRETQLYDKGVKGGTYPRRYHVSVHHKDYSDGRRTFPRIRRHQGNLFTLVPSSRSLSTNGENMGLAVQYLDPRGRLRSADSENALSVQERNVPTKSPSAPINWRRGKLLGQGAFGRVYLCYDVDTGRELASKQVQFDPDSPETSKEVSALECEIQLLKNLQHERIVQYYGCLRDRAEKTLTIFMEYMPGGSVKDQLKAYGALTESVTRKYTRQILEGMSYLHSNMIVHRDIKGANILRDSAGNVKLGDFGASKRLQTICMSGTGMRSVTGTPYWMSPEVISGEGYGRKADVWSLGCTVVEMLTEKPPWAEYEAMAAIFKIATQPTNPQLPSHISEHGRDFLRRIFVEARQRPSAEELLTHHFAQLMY
T12 sequence (Q9UIK4 whole entry): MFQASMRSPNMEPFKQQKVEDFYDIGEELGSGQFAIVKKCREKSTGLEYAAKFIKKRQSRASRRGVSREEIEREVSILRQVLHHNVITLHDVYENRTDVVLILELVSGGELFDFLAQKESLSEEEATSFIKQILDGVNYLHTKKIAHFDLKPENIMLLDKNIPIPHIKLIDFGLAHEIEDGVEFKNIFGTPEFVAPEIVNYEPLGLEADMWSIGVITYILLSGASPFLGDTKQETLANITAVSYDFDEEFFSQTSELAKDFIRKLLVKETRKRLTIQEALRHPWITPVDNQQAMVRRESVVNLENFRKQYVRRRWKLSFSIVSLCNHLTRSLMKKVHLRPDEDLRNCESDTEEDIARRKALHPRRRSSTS

CC(C)(C)c1cc(NC(=O)Nc2ccc(Oc3ncnc4[nH]ncc34)c(F)c2)no1 [SKLB-677, 1-(4-(1H-pyrazolo[3,4-d]pyrimidin-4-yloxy)-3-fluorophenyl)-3-(5-tert-butylisoxazol-3-yl)urea]
remaining binding at 10 µM [1]: 21% | remaining binding at 10 µM [2]: 1.2% | remaining binding at 10 µM [3]: 95% | remaining binding at 10 µM [4]: 81% | remaining binding at 10 µM [5]: 0.95% | remaining binding at 10 µM [6]: 88% | remaining binding at 10 µM [7]: 35% | remaining binding at 10 µM [8]: 59% | remaining binding at 10 µM [9]: 5.6% | remaining binding at 10 µM [10]: 0.3% | remaining binding at 10 µM [11]: 74% | remaining binding at 10 µM [12]: 83% | remaining binding at 10 µM [13]: 1.2% | remaining binding at 10 µM [14]: 0% | remaining binding at 10 µM [15]: 0.1% | remaining binding at 10 µM [16]: 2% | remaining binding at 10 µM [17]: 81% | remaining binding at 10 µM [18]: 0.8% | remaining binding at 10 µM [19]: 24% | remaining binding at 10 µM [20]: 87% | remaining binding at 10 µM [21]: 30% | remaining binding at 10 µM [22]: 55% | remaining binding at 10 µM [23]: 2% | remaining binding at 10 µM [24]: 100% | remaining binding at 10 µM [25]: 68% | remaining binding at 10 µM [26]: 90% | remaining binding at 10 µM [27]: 0.2% | remaining binding at 10 µM [28]: 100% | remaining binding at 10 µM [29]: 98% | remaining binding at 10 µM [30]: 90% | remaining binding at 10 µM [31]: 98% | remaining binding at 10 µM [32]: 100% | remaining binding at 10 µM [33]: 64% | remaining binding at 10 µM [34]: 100% | remaining binding at 10 µM [35]: 0.1% | remaining binding at 10 µM [36]: 78% | remaining binding at 10 µM [37]: 100% | remaining binding at 10 µM [38]: 50% | mRNA level of NKD1 and AXIN2 in tumors [39]: down-regulated | protein levels of active β-catenin and NKD1 in tumors [39]: induced the reduction | IC50 [40]: > 10 µM | IC50 [41]: > 10 µM | IC50 [42]: > 10 µM
